We go through one molecule from patent US20170306409A1, “CANCER PATIENT SELECTION FOR ADMINISTRATION OF WNT SIGNALING INHIBITORS USING RNF43 MUTATION STATUS” (NOVARTIS AG, priority 2012, published 2017).

Assay type in all cases: cell-based, human
Experiment [1] concerns cell surface Frizzled (FZD), YAPC cells. The experiment is described as follows: flow cytometry of membrane Frizzled (pan-Frizzled antibody 18R5). The procedure:
YAPC cells were transfected with indicated siRNA, and membrane levels of Frizzled were analyzed by flowcytometry using pan-Frizzled antibody 18R5.
For flow cytometric analysis, cells were harvested using trypsin-free cell dissociation buffer (Invitrogen) and resuspended in FACS buffer (PBS with 1% BSA and 0.02% sodium azide). After blocking, cells were incubated with anti-pan-Frizzled (18R5) antibody for 1 hour at 4° C., followed by incubation with Allophycocyanin (APC)-conjugated goat anti-human IgG secondary antibody. After extensive washes using FACS buffer, cells were stained with propidium iodide (PI) and subjected to multi-channel analysis using BD LSR II flow cytometer.
(§1) Consistent with this observation, treatment of Porcupine inhibitor IWP2 or LGK974 increased the cell surface level of Frizzled and decreased the mRNA levels of AXIN2 and RNF43. See, FIG. 4(b). […] YAPC cells were treated with 3 μM of IWP-2 or 1 μM of LGK974, and subjected to flowcytometry analysis for membrane Frizzled expression.

Experiment [2] relates to Axin2, YAPC. The experiment is described as follows: Axin2 qPCR assay (pathway inhibition). The conditions noted are these: YAPC cells; 3 μM of IWP2. The procedure:
(§2) For reverse transcription and quantitative PCR (qPCR), total RNA was extracted from cells or tumors using the RNeasy Plus Mini Kit (Qiagen). 1 μg of RNA were reverse transcribed with Taqman Reverse Transcription Reagents (Applied Biosystems) according to the manufacturer's instruction. Quantitative PCR was performed in 12 μl reactions consisting of 0.6 μl of 20× Taqman probe and PCR primer mix, 6 μl 2× Taqman FAST Advanced Master Mix (Applied Biosystems), and 5.4 μl diluted cDNA template. The thermocycling conditions utilized were 20 seconds at 95° C., followed by 40 cycles of 1 second at 95° C. and 20 seconds at 60° C. All experiments were performed in quadruplicates. Gene expression analysis was performed using the comparative ΔΔCT method and normalized with the housekeeping gene GUSB or 18S. The Taqman probes were purchased from Applied Biosystems.
as §1
For orientation: Real-time PCR tracks product formation cycle by cycle.

Experiment [3] relates to RNF43 mRNA, YAPC cells. Briefly: quantitative RT-PCR gene expression analysis. The conditions noted are these: 3 μM of IWP2. As to the method:
FIG. 4(a) is a bar graph showing that the depletion of β-catenin decreases mRNA level of AXIN2 and RNF43. Cells were treated with siRNA, and relative mRNA levels of indicated genes were analyzed by quantitative RT-PCR. […] YAPC cells were treated with 3 μM of IWP2 or 1 μM of LGK974, and subjected to gene expression analysis by quantitative RT-PCR.
as §2
Consistent with this observation, treatment of Porcupine inhibitor IWP2 or LGK974 increased the cell surface level of Frizzled and decreased the mRNA levels of AXIN2 and RNF43. See, FIG. 4(b). […]

The subject of experiment [4] is STF Wnt reporter, YAPC-STF cells. The experiment is described as follows: SuperTOPFlash (STF) luciferase reporter assay. The following applies: absence of exogenous Wnt3a, LGK974 or IWP-2. The procedure:
For the luciferase reporter assay, YAPC-STF reporter cells were transfected with siRNA and treated with Wnt3a conditioned medium or compound where applicable. STF luciferase assays were performed using BrightGlo Luciferase Assay kits (Promega) according to the manufacturer's instructions.
To construct pancreatic cell lines expressing STF reporter, HEK293 cells were grown in medium recommended by ATCC supplemented with 10% FBS. Retrovirus or lentivirus was produced from HEK293 cells by standard virus packaging procedure using FuGENE 6 (Roche) transfection reagent. Pancreatic cell lines expressing STF reporter, RNF43 constructs, or DOX-inducible β-catenin shRNA were generated by viral infection and drug selection.
Depletion of RNF43 induces Dvl phosphorylation and β-catenin stabilization. […] RNF43 siRNA-induced STF activity in the absence of exogenous Wnt3a is inhibited by LGK974 and a previously known Porcupine inhibitor IWP-2. Chen B et al. (2009) Nat. Chem. Biol. 5(2):100-7. See, FIG. 3(b), showing that this activity is dependent on the expression of endogenous Wnt proteins.

Turning to `Cc1ccc2nc(NC(=O)CSc3nc4c(c(=O)n3-c3ccccc3)SCC4)sc2c1` [IWP-2, reference compound], the “Median FZD intensity in FACS” value is 1754 in experiment [1] (3 μM of IWP-2, DMSO 721) and “increased” in experiment [1] (3 μM of IWP-2, DMSO 721, listed as IWP2). The “mRNA level of AXIN2” value in experiment [2] was “decreased”. The “mRNA level of RNF43” value in experiment [3] was “decreased”. Besides, in experiment [4], the “RNF43 siRNA-induced STF activity” value is given as “inhibited”.
